{
  "source": "patent US8247211B2",
  "about": "“Glycopeptide antibiotics” (American Cyanamid Company, priority 2001, dated 2012)",
  "assay_in_all_cases": "In vitro antibacterial evaluation: minimum inhibitory concentration (MIC), broth dilution method",
  "type_in_all_cases": "cell-based",
  "key": {"[1]": {"system": "Escherichia coli", "settings": "broth dilution, 18 hours at 35° C."}, "[2]": {"system": "Enterococcus sp.", "settings": "broth dilution, 18 hours at 35° C.", "how_it_was_run": "(§1)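 An MIC is reported for each organism as the least concentration giving inhibition, using broth dilution over 64-0.06 μg/mL with a 5×10^5 CFU/mL inoculum.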"}, "[3]": {"system": "Staphylococcus sp.", "settings": "strain SMITH GC 4543; broth dilution, 18 hours at 35° C.", "how_it_was_run": "as §1"}, "[4]": {"system": "Streptococcus sp.", "settings": "broth dilution, 18 hours at 35° C.", "how_it_was_run": "as §1"}, "[5]": {"settings": "Enterococcus faecalis (ATCC 29212)"}, "[6]": {"settings": "Enterococcus faecalis (GC 2242)"}, "[7]": {"settings": "Enterococcus faecalis (GC 2691)"}, "[8]": {"settings": "Enterococcus faecalis (GC 3059)"}, "[9]": {"settings": "Enterococcus faecalis (GC 4552)"}, "[10]": {"settings": "Enterococcus faecalis (GC 4553)"}, "[11]": {"settings": "Enterococcus faecalis (GC 4554)"}, "[12]": {"settings": "Enterococcus faecalis (GC 6189)"}, "[13]": {"settings": "Streptococcus agalactiae (GC 4564)"}, "[14]": {"settings": "Streptococcus pneumoniae (ATCC 6301)"}, "[15]": {"settings": "Streptococcus pneumoniae (GC 1894)"}, "[16]": {"settings": "Streptococcus pneumoniae (GC 4565)"}, "[17]": {"settings": "Streptococcus pyogenes (GC 4563)"}},
  "data": [
    {"smiles": "CC(c1ccccc1)C1NC(=O)CNC(=O)C(CO)NC(=O)C(C(O)C2CNC(=N)N2C2OC(CO)C(O)C(O)C2O)NC(=O)C(C(O)C2CNC(=N)N2)NC(=O)C(Cc2ccc(O)c(NC(=S)Nc3cc(C(F)(F)F)cc(C(F)(F)F)c3)c2)NC1=O", "note": "(stereo not drawn) [Example 24, Cyclo[glycyl-β-methylphenylalanyl-3-[[[3,5-bis(trifluoromethyl)phenyl]carbamothioyl]amino]-tyrosyl-3-(2-iminoimidazolidin-4-yl)seryl-3-(3-hexopyranosyl-2-iminoimidazolidin-4-yl)-serylseryl]]", "values": [
      {"measurement": "MIC Escherichia coli (ATCC 25922)", "setting": "[1]", "value": ">64", "unit": "µg/mL"},
      {"measurement": "MIC Escherichia coli (GC 4559)", "setting": "[1]", "value": ">64", "unit": "µg/mL"},
      {"measurement": "MIC Escherichia coli (GC 4560)", "setting": "[1]", "value": 32, "unit": "µg/mL"},
      {"measurement": "MIC Enterococcus avium (GC 4558)", "setting": "[2]; Enterococcus avium (GC 4558)", "value": 64, "unit": "µg/mL"},
      {"measurement": "MIC Enterococcus faecalis (ATCC 29212)", "setting": "[2]; [5]", "value": 64, "unit": "µg/mL"},
      {"measurement": "MIC Enterococcus faecalis (GC 2242)", "setting": "[2]; [6]", "value": 64, "unit": "µg/mL"},
      {"measurement": "MIC Enterococcus faecalis (GC 2691)", "setting": "[2]; [7]", "value": ">64", "unit": "µg/mL"},
      {"measurement": "MIC Enterococcus faecalis (GC 3059)", "setting": "[2]; [8]", "value": ">64", "unit": "µg/mL"},
      {"measurement": "MIC Enterococcus faecalis (GC 4552)", "setting": "[2]; [9]", "value": ">64", "unit": "µg/mL"},
      {"measurement": "MIC Enterococcus faecalis (GC 4553)", "setting": "[2]; [10]", "value": 32, "unit": "µg/mL"},
      {"measurement": "MIC Enterococcus faecalis (GC 4554)", "setting": "[2]; [11]", "value": ">64", "unit": "µg/mL"},
      {"measurement": "MIC Enterococcus faecalis (GC 6189)", "setting": "[2]; [12]", "value": ">64", "unit": "µg/mL"},
      {"measurement": "MIC Enterococcus faecium (GC 2243)", "setting": "[2]; Enterococcus faecium (GC 2243)", "value": 64, "unit": "µg/mL"},
      {"measurement": "MIC Enterococcus faecium (GC 4556)", "setting": "[2]; Enterococcus faecium (GC 4556)", "value": 64, "unit": "µg/mL"},
      {"measurement": "MIC Enterococcus faecium (GC 4557)", "setting": "[2]; Enterococcus faecium (GC 4557)", "value": 32, "unit": "µg/mL"},
      {"measurement": "MIC Enterococcus avium (GC 4558)", "setting": "[2]", "value": 64, "unit": "µg/mL"},
      {"measurement": "MIC Enterococcus faecalis (ATCC 29212)", "setting": "[2]", "value": 64, "unit": "µg/mL"},
      {"measurement": "MIC Enterococcus faecalis (GC 2242)", "setting": "[2]", "value": 64, "unit": "µg/mL"},
      {"measurement": "MIC Enterococcus faecalis (GC 2691)", "setting": "[2]", "value": ">64", "unit": "µg/mL"},
      {"measurement": "MIC Enterococcus faecalis (GC 3059)", "setting": "[2]", "value": ">64", "unit": "µg/mL"},
      {"measurement": "MIC Enterococcus faecalis (GC 4552)", "setting": "[2]", "value": ">64", "unit": "µg/mL"},
      {"measurement": "MIC Enterococcus faecalis (GC 4553)", "setting": "[2]", "value": 32, "unit": "µg/mL"},
      {"measurement": "MIC Enterococcus faecalis (GC 4554)", "setting": "[2]", "value": ">64", "unit": "µg/mL"},
      {"measurement": "MIC Enterococcus faecalis (GC 6189)", "setting": "[2]", "value": ">64", "unit": "µg/mL"},
      {"measurement": "MIC Enterococcus faecium (GC 2243)", "setting": "[2]", "value": 64, "unit": "µg/mL"},
      {"measurement": "MIC Enterococcus faecium (GC 4556)", "setting": "[2]", "value": 64, "unit": "µg/mL"},
      {"measurement": "MIC Enterococcus faecium (GC 4557)", "setting": "[2]", "value": 32, "unit": "µg/mL"},
      {"measurement": "MIC Staphylococcus aureus-SMITH (GC 4543)", "setting": "[3]", "value": ">64", "unit": "µg/mL"},
      {"measurement": "MIC Streptococcus agalactiae (GC 4564)", "setting": "[4]; [13]", "value": ">64", "unit": "µg/mL"},
      {"measurement": "MIC Streptococcus pneumoniae (ATCC 6301)", "setting": "[4]; [14]", "value": ">64", "unit": "µg/mL"},
      {"measurement": "MIC Streptococcus pneumoniae (GC 1894)", "setting": "[4]; [15]", "value": 64, "unit": "µg/mL"},
      {"measurement": "MIC Streptococcus pneumoniae (GC 4565)", "setting": "[4]; [16]", "value": ">64", "unit": "µg/mL"},
      {"measurement": "MIC Streptococcus pyogenes (GC 4563)", "setting": "[4]; [17]", "value": 64, "unit": "µg/mL"},
      {"measurement": "MIC Streptococcus agalactiae (GC 4564)", "setting": "[4]", "value": ">64", "unit": "µg/mL"},
      {"measurement": "MIC Streptococcus pneumoniae (ATCC 6301)", "setting": "[4]", "value": ">64", "unit": "µg/mL"},
      {"measurement": "MIC Streptococcus pneumoniae (GC 1894)", "setting": "[4]", "value": 64, "unit": "µg/mL"},
      {"measurement": "MIC Streptococcus pneumoniae (GC 4565)", "setting": "[4]", "value": ">64", "unit": "µg/mL"},
      {"measurement": "MIC Streptococcus pyogenes (GC 4563)", "setting": "[4]", "value": 64, "unit": "µg/mL"}
    ]},
    {"smiles": "CC(c1ccccc1)C1NC(=O)CNC(=O)C(CO)NC(=O)C(C(O)C2CNC(=N)N2C2OC(CO)C(O)C(O)C2O)NC(=O)C(C(O)C2CNC(=N)N2)NC(=O)C(Cc2ccc3oc(-c4cccc([N+](=O)[O-])c4)nc3c2)NC1=O", "note": "(stereo not drawn) [Example 26, Cyclo[3-[2-(3-nitrophenyl)-1,3-benzoxazol-5-yl)alanyl-3-(2-iminoimidazolidin-4-yl)seryl-3-(3-hexopyranosyl-2-iminoimidazolidin-4-yl)serylserylglycyl-β-methylphenylalanyl]]", "values": [
      {"measurement": "MIC Escherichia coli (ATCC 25922)", "setting": "[1]", "value": 64, "unit": "µg/mL"},
      {"measurement": "MIC Escherichia coli (GC 4559)", "setting": "[1]", "value": 64, "unit": "µg/mL"},
      {"measurement": "MIC Escherichia coli (GC 4560)", "setting": "[1]", "value": 16, "unit": "µg/mL"},
      {"measurement": "MIC Enterococcus avium (GC 4558)", "setting": "[2]; Enterococcus avium (GC 4558)", "value": 32, "unit": "µg/mL"},
      {"measurement": "MIC Enterococcus faecalis (ATCC 29212)", "setting": "[2]; [5]", "value": 32, "unit": "µg/mL"},
      {"measurement": "MIC Enterococcus faecalis (GC 2242)", "setting": "[2]; [6]", "value": 64, "unit": "µg/mL"},
      {"measurement": "MIC Enterococcus faecalis (GC 2691)", "setting": "[2]; [7]", "value": 32, "unit": "µg/mL"},
      {"measurement": "MIC Enterococcus faecalis (GC 3059)", "setting": "[2]; [8]", "value": 64, "unit": "µg/mL"},
      {"measurement": "MIC Enterococcus faecalis (GC 4552)", "setting": "[2]; [9]", "value": 64, "unit": "µg/mL"},
      {"measurement": "MIC Enterococcus faecalis (GC 4553)", "setting": "[2]; [10]", "value": 32, "unit": "µg/mL"},
      {"measurement": "MIC Enterococcus faecalis (GC 4554)", "setting": "[2]; [11]", "value": 64, "unit": "µg/mL"},
      {"measurement": "MIC Enterococcus faecalis (GC 6189)", "setting": "[2]; [12]", "value": 32, "unit": "µg/mL"},
      {"measurement": "MIC Enterococcus faecium (GC 2243)", "setting": "[2]; Enterococcus faecium (GC 2243)", "value": 32, "unit": "µg/mL"},
      {"measurement": "MIC Enterococcus faecium (GC 4556)", "setting": "[2]; Enterococcus faecium (GC 4556)", "value": 64, "unit": "µg/mL"},
      {"measurement": "MIC Enterococcus faecium (GC 4557)", "setting": "[2]; Enterococcus faecium (GC 4557)", "value": 8, "unit": "µg/mL"},
      {"measurement": "MIC Enterococcus avium (GC 4558)", "setting": "[2]", "value": 32, "unit": "µg/mL"},
      {"measurement": "MIC Enterococcus faecalis (ATCC 29212)", "setting": "[2]", "value": 32, "unit": "µg/mL"},
      {"measurement": "MIC Enterococcus faecalis (GC 2242)", "setting": "[2]", "value": 64, "unit": "µg/mL"},
      {"measurement": "MIC Enterococcus faecalis (GC 2691)", "setting": "[2]", "value": 32, "unit": "µg/mL"},
      {"measurement": "MIC Enterococcus faecalis (GC 3059)", "setting": "[2]", "value": 64, "unit": "µg/mL"},
      {"measurement": "MIC Enterococcus faecalis (GC 4552)", "setting": "[2]", "value": 64, "unit": "µg/mL"},
      {"measurement": "MIC Enterococcus faecalis (GC 4553)", "setting": "[2]", "value": 32, "unit": "µg/mL"},
      {"measurement": "MIC Enterococcus faecalis (GC 4554)", "setting": "[2]", "value": 64, "unit": "µg/mL"},
      {"measurement": "MIC Enterococcus faecalis (GC 6189)", "setting": "[2]", "value": 32, "unit": "µg/mL"},
      {"measurement": "MIC Enterococcus faecium (GC 2243)", "setting": "[2]", "value": 32, "unit": "µg/mL"},
      {"measurement": "MIC Enterococcus faecium (GC 4556)", "setting": "[2]", "value": 64, "unit": "µg/mL"},
      {"measurement": "MIC Enterococcus faecium (GC 4557)", "setting": "[2]", "value": 8, "unit": "µg/mL"},
      {"measurement": "MIC Staphylococcus aureus-SMITH (GC 4543)", "setting": "[3]", "value": 16, "unit": "µg/mL"},
      {"measurement": "MIC Streptococcus agalactiae (GC 4564)", "setting": "[4]; [13]", "value": 16, "unit": "µg/mL"},
      {"measurement": "MIC Streptococcus pneumoniae (ATCC 6301)", "setting": "[4]; [14]", "value": 32, "unit": "µg/mL"},
      {"measurement": "MIC Streptococcus pneumoniae (GC 1894)", "setting": "[4]; [15]", "value": 16, "unit": "µg/mL"},
      {"measurement": "MIC Streptococcus pneumoniae (GC 4565)", "setting": "[4]; [16]", "value": 32, "unit": "µg/mL"},
      {"measurement": "MIC Streptococcus pyogenes (GC 4563)", "setting": "[4]; [17]", "value": 8, "unit": "µg/mL"},
      {"measurement": "MIC Streptococcus agalactiae (GC 4564)", "setting": "[4]", "value": 16, "unit": "µg/mL"},
      {"measurement": "MIC Streptococcus pneumoniae (ATCC 6301)", "setting": "[4]", "value": 32, "unit": "µg/mL"},
      {"measurement": "MIC Streptococcus pneumoniae (GC 1894)", "setting": "[4]", "value": 16, "unit": "µg/mL"},
      {"measurement": "MIC Streptococcus pneumoniae (GC 4565)", "setting": "[4]", "value": 32, "unit": "µg/mL"},
      {"measurement": "MIC Streptococcus pyogenes (GC 4563)", "setting": "[4]", "value": 8, "unit": "µg/mL"}
    ]}
  ]
}
